From patent US11939307B2, “Phenylmethyl-piperazine derivatives and antiviral uses thereof” (INSTITUTE OF MEDICINAL BIOTECHNOLOGY, CHINESE ACADEMY OF …, priority 2019, dated 2024)

Tested on: HCV
Assay: Assay of anti-HCV activity in HCV-infected Huh7.5 cells (intracellular HCV RNA by one-step quantitative RT-PCR)
Assay type: cell-based
Details: Hepatitis C virus; compound at 1 μM; Huh7.5 cells infected with HCV; 96 hrs; intracellular HCV RNA vs viral control; read-out: inhibitory activities (inhibitory levels of the compounds against HCV replication)
Experimental: 100 μL Huh7.5 cells were seeded at a density of 1×10^5/mL in a 96-well cell culture plate and incubated in an incubator at 37° C., 5% CO2 and saturated humidity for 6 hrs. Then, while infecting Huh7.5 cells with viral solution containing HCV virus particles, the compounds of the present invention (including all specific compounds listed herein) were added at a concentration of 1 μM, respectively. After continuing incubation for 96 hrs, the total intracellular RNA was extracted separately, and the content of intracellular HCV RNA was measured by one-step quantitative RT-PCR, compared with the RNA level of the viral control, and the inhibition rate of the compounds against HCV was calculated.

| Structure (SMILES) | inhibition at 1 µM [%] |
| --- | --- |
| CC(c1ccc(Br)cc1)N1CCN(Cc2cc(N3CCCN(C)CC3)ccc2C(F)(F)F)CC1 (stereo not drawn) [Compound 1, 1-(3-((4-(1-(4-bromophenyl)ethyl)piperazin-1-yl)methyl)-4-(trifluoromethyl)phenyl)-4-methyl-1,4-diazepane] | > 75 |
| CN1CCCN(c2ccc(C(F)(F)F)c(CN3CCN(Cc4ccc(Cl)cc4)CC3)c2)CC1 [Compound 2, 1-(3-((4-(4-chlorobenzyl)piperazin-1-yl)methyl)-4-(trifluoromethyl)phenyl)-4-methyl-1,4-diazepane] | > 75 |
| CC(c1ccc(F)c(Cl)c1)N1CCN(Cc2cc(N3CCCN(C)CC3)ccc2C(F)(F)F)CC1 (stereo not drawn) [Compound 3, 1-(3-((4-(1-(3-chloro-4-fluorophenyl)ethyl)piperazin-1-yl)methyl)-4-(trifluoromethyl)phenyl)-4-methyl-1,4-diazepane] | > 75 |
| Cc1cc(CN2CCN(Cc3cc(N4CCCN(C)CC4)ccc3C(F)(F)F)CC2)ccc1Cl [Compound 4, 1-(3-((4-(4-chloro-3-methylbenzyl)piperazin-1-yl)methyl)-4-(trifluoromethyl)phenyl)-4-methyl-1,4-diazepane] | > 75 |
| CCCC(c1ccc(OC)cc1)N1CCN(Cc2cc(N3CCCN(C)CC3)ccc2C(F)(F)F)CC1 (stereo not drawn) [Compound 5, 1-(3-((4-(1-(4-methoxyphenyl)butyl)piperazin-1-yl)methyl)-4-(trifluoromethyl)phenyl)-4-methyl-1,4-diazepane] | > 75 |
| CN1CCN(c2ccc(C(F)(F)F)c(CN3CCN(Cc4ccc(Cl)c(Cl)c4)CC3)c2)CC1 [Compound 6, 1-(3,4-dichlorobenzyl)-4-(5-(4-methylpiperazin-1-yl)-2-(trifluoromethyl)benzyl)piperazine] | > 75 |
| CN1CCCN(c2ccc(C(F)(F)F)c(CN3CCC(Cc4ccc(Cl)cc4)CC3)c2)CC1 [Compound 7, 1-(3-((4-(4-chlorobenzyl)piperidin-1-yl)methyl)-4-(trifluoromethyl)phenyl)-4-methyl-1,4-diazepane] | 50 to 75 |
| CCC(c1ccc(Br)cc1)N1CCN(Cc2cc(N(C)CCN(C)C)ccc2C(F)(F)F)CC1 (stereo not drawn) [Compound 8, N^1-(3-((4-(1-(4-bromophenyl)propyl)piperazin-1-yl)methyl)-4-(trifluoromethyl)phenyl)-N^1,N^2,N^2-trimethylethan-1,2-diamine] | > 75 |
| CC(c1ccc(Cl)cc1)N1CCN(Cc2cc(N(C)CCN(C)C)ccc2C(F)(F)F)CC1 (stereo not drawn) [Compound 9, N^1-(3-((4-(1-(4-chlorophenyl)ethyl)piperazin-1-yl)methyl)-4-(trifluoromethyl)phenyl)-N^1,N^2,N^2-trimethylethan-1,2-diamine] | > 75 |
| Cc1ccc(CN2CCN(Cc3cc(N(C)CCN(C)C)ccc3C(F)(F)F)CC2)cc1 [Compound 10, N^1,N^1,N^2-trimethyl-N^2-(3-((4-(4-methylbenzyl)piperazin-1-yl)methyl)-4-(trifluoromethyl)phenyl)ethan-1,2-diamine] | 50 to 75 |
| CCN1CCN(c2ccc(C#N)c(CN3CCN(Cc4ccc(Cl)c(C)c4)CC3)c2)CC1 [Compound 11, 2-((4-(4-chloro-3-methylbenzyl)piperazin-1-yl)methyl)-4-(4-ethylpiperazin-1-yl)benzonitrile] | 50 to 75 |
| N#Cc1ccc(N2CCN(C3CC3)CC2)cc1CN1CCN(Cc2ccc(Cl)cc2)CC1 [Compound 12, 2-((4-(4-chlorobenzyl)piperazin-1-yl)methyl)-4-(4-cyclopropylpiperazin-1-yl)benzonitrile] | 50 to 75 |
| CCN(C)CCN(C)c1ccc(C#N)c(CN2CCN(C(C)c3ccc(Cl)cc3)CC2)c1 (stereo not drawn) [Compound 13, 2-((4-(1-(4-chlorophenyl)ethyl)piperazin-1-yl)methyl)-4-((2-(ethyl(methyl)amino)ethyl)(methyl)amino)benzonitrile] | > 75 |
| CC(c1ccccc1)N1CCN(Cc2cc(N3CCCC(N(C)C)C3)ccc2C#N)CC1 (stereo not drawn) [Compound 14, 4-(3-(dimethylamino)piperidin-1-yl)-2-((4-(1-phenylethyl)piperazin-1-yl)methyl)benzonitrile] | 50 to 75 |
| CC(c1ccc(C(F)(F)F)cc1)N1CCN(Cc2cc(N(C)CCN(C)C)ccc2C#N)CC1 (stereo not drawn) [Compound 15, 4-((2-(dimethylamino)ethyl)(methyl)amino)-2-((4-(1-(4-(trifluoromethyl)phenyl)ethyl)piperazin-1-yl)methyl)benzonitrile] | > 75 |
| CC(C)C(c1ccc(Cl)cc1)N1CCN(Cc2cc(N(C)CCN3CCCC3)ccc2C#N)CC1 (stereo not drawn) [Compound 16, 2-((4-(1-(4-chlorophenyl)-2-methylpropyl)piperazin-1-yl)methyl)-4-(methyl(2-(pyrrolidin-1-yl)ethyl)amino)benzonitrile] | > 75 |
| CCN(CC)CCN(C)c1ccc(C#N)c(CN2CCN(Cc3ccc(F)c(Cl)c3)CC2)c1 [Compound 17, 2-((4-(3-chloro-4-fluorobenzyl)piperazin-1-yl)methyl)-4-((2-(diethylamino)ethyl)(methyl)amino)benzonitrile] | > 75 |
| N#Cc1ccc(NCCCn2cccc2)cc1CN1CCN(Cc2ccc(Cl)c(Cl)c2)CC1 [Compound 18, 4-((3-(1H-pyrrol-1-yl)propyl)amino)-2-((4-(3,4-dichlorobenzyl)piperazin-1-yl)methyl)benzonitrile] | > 75 |
| CN(C)CCN(C)c1ccc(C(F)(F)F)c(CN2CCN(c3ccc(Cl)cc3)CC2)c1 [Compound 19, N^1-(3-((4-(4-chlorophenyl)piperazin-1-yl)methyl)-4-(trifluoromethyl)phenyl)-N^1,N^2,N^2-trimethylethan-1,2-diamine] | > 75 |
| CN(C)CCN(C)c1ccc(C(F)(F)F)c(CN2CCN(c3ccc(Br)cc3)CC2)c1 [Compound 20, N^1-(3-((4-(4-bromophenyl)piperazin-1-yl)methyl)-4-(trifluoromethyl)phenyl)-N^1,N^2,N^2-trimethylethan-1,2-diamine] | > 75 |
| CN(CC1CCCCN1C)c1ccc(C(F)(F)F)c(CN2CCN(c3ccc(Cl)cc3)CC2)c1 (stereo not drawn) [Compound 21, 3-((4-(4-chlorophenyl)piperazin-1-yl)methyl)-N-methyl-N-((1-methylpiperidin-2-yl)methyl)-4-(trifluoromethyl)aniline] | > 75 |
| CC1CN(c2ccc(Cl)cc2)CCN1Cc1cc(N2CCCN(C)CC2)ccc1C(F)(F)F (stereo not drawn) [Compound 22, 1-(3-((4-(4-chlorophenyl)-2-methylpiperazin-1-yl)methyl)-4-(trifluoromethyl)phenyl)-4-methyl-1,4-diazepane] | > 75 |
| CN1CCCN(c2ccc(C(F)(F)F)c(CN3CCN(c4ccc(Cl)cc4)CC3)c2)CC1 [Compound 23, 1-(3-((4-(4-chlorophenyl)piperazin-1-yl)methyl)-4-(trifluoromethyl)phenyl)-4-methyl-1,4-diazepane] | > 75 |
| CN(CC1CCCN1C)c1ccc(C(F)(F)F)c(CN2CCN(c3ccc(Br)cc3)CC2)c1 (stereo not drawn) [Compound 24, 3-((4-(4-bromophenyl)piperazin-1-yl)methyl)-N-methyl-N-((1-methylpyrrolidin-2-yl)methyl)-4-(trifluoromethyl)aniline] | > 75 |
